Measurements as given in ChEMBL document CHEMBL1201862, “PubChem BioAssay data set” (2004).
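Briefly, cells in 96-well plates were exposed to five compound concentrations for 48 h, and endpoints were estimated by linear interpolation. Here, GI50 denotes the concentration required for 50% inhibition of growth.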 Activity calls are given as the source filed them. Rule as the data show it: active = GI50 up to about 1.1 µM and inactive = higher.

Key:
Experiment in all cases: NCI-60 cell line screen, 48 h
[1] = tested on: RXF 393
[2] = tested on: SR
[3] = tested on: A498
[4] = tested on: OVCAR-3
[5] = tested on: KM12
[6] = tested on: OVCAR-5
[7] = tested on: SF-295
[8] = tested on: NCI-H460
[9] = tested on: HOP-62
[10] = tested on: MDA-MB-231
[11] = tested on: TK-10
[12] = tested on: DU-145
[13] = tested on: NCI/ADR-RES
[14] = tested on: EKVX
[15] = tested on: OVCAR-8
[16] = tested on: PC-3
[17] = tested on: CAKI-1
[18] = tested on: MOLT-4

Row | Structure (SMILES) | GI50 [1] | GI50 [2] | GI50 [3] | GI50 [4] | GI50 [5] | GI50 [6] | GI50 [7] | GI50 [8] | GI50 [9] | GI50 [10] | GI50 [11] | GI50 [12] | GI50 [13] | GI50 [14] | GI50 [15] | GI50 [16] | GI50 [17] | GI50 [18]
1 | S=C(S)NCCN1CCNCC1 | 19.8 µM (inactive) | 24.5 µM (inactive) | > 100 µM (inactive) | 22.4 µM (inactive) | > 100 µM (inactive) | > 100 µM (inactive) | > 100 µM (inactive) | 34.6 µM (inactive) | > 100 µM (inactive) | > 100 µM (inactive) | 20.8 µM (inactive) | 36.1 µM (inactive) | > 100 µM (inactive) | 57.1 µM (inactive) | 28.9 µM (inactive) | 34.3 µM (inactive) | 39.5 µM (inactive) | –
2 | COc1ccc2nc3cc([N+](=O)[O-])ccc3c(NNc3ccccc3)c2c1 | 47.9 µM (inactive) | 14.8 µM (inactive) | 0.0681 µM (active) | 30 µM (inactive) | 12.4 µM (inactive) | 2.07 µM (inactive) | 35.5 µM (inactive) | 11.7 µM (inactive) | 27.7 µM (inactive) | 20.6 µM (inactive) | 2.58 µM (inactive) | 42.1 µM (inactive) | 31 µM (inactive) | 16 µM (inactive) | 39.3 µM (inactive) | 35.4 µM (inactive) | – | 21 µM (inactive)
3 | Cc1cc2c(cc1-c1cc3c(cc1C)C(C(C)C)=C(O)C(=O)/C3=C\Nc1c3ccccc3nc3ccccc13)/C(=C/Nc1c3ccccc3nc3ccccc13)C(=O)C(O)=C2C(C)C | 5.24 µM (inactive) | 3.91 µM (inactive) | 7.03 µM (inactive) | 3.47 µM (inactive) | 3.09 µM (inactive) | 4.4 µM (inactive) | 2.31 µM (inactive) | 2.09 µM (inactive) | 4.26 µM (inactive) | 4.55 µM (inactive) | – | 6.3 µM (inactive) | 2.59 µM (inactive) | 1.75 µM (inactive) | 2.3 µM (inactive) | 3.25 µM (inactive) | 3.03 µM (inactive) | 3.27 µM (inactive)
4 | CC1=C2O[C@]3(O)C=C2C(=C(O)C1=O)[C@@H]1O[C@H](CC[C@H](C)/C=C(\C)C[C@@H](C)C[C@@H]3C)[C@H](C)[C@H](O)[C@H]1C [KENDOMYCIN] | 0.161 µM (active) | 0.135 µM (active) | 1.58 µM (inactive) | 0.15 µM (active) | 0.661 µM (active) | 1.31 µM (inactive) | 1.22 µM (inactive) | 0.728 µM (active) | 0.356 µM (active) | 0.151 µM (active) | 0.155 µM (active) | 0.265 µM (active) | 0.311 µM (active) | 0.356 µM (active) | – | 0.269 µM (active) | 0.541 µM (active) | 0.097 µM (active)
5 | O=S(=O)(c1ccccc1)N1CN2CN(C1)CN(S(=O)(=O)c1ccccc1)C2 | 55.7 µM (inactive) | > 100 µM (inactive) | > 100 µM (inactive) | > 100 µM (inactive) | > 100 µM (inactive) | > 100 µM (inactive) | > 100 µM (inactive) | > 100 µM (inactive) | > 100 µM (inactive) | > 100 µM (inactive) | > 100 µM (inactive) | > 100 µM (inactive) | > 100 µM (inactive) | > 100 µM (inactive) | > 100 µM (inactive) | > 100 µM (inactive) | > 100 µM (inactive) | –
6 | O=C(C(Cl)=C(N1CCCCC1)N1CCCCC1)C(Cl)Cl | > 100 µM (inactive) | > 100 µM (inactive) | > 100 µM (inactive) | > 100 µM (inactive) | > 100 µM (inactive) | – | > 100 µM (inactive) | > 100 µM (inactive) | > 100 µM (inactive) | > 100 µM (inactive) | > 100 µM (inactive) | > 100 µM (inactive) | > 100 µM (inactive) | > 100 µM (inactive) | > 100 µM (inactive) | > 100 µM (inactive) | 21.4 µM (inactive) | > 100 µM (inactive)
7 | C=C(C)C12CC(COC(=O)c3ccccc3)C34OC5(OC1C3C1OC1(CO)C(O)C1(O)C(OC(=O)c3ccccc3)C(C)C(C(C)CCCCCCC5O)C14)O2 (stereo not given) | 52.6 µM (inactive) | 18.5 µM (inactive) | 60.4 µM (inactive) | 63 µM (inactive) | 40.8 µM (inactive) | 88.7 µM (inactive) | 31.2 µM (inactive) | 33.6 µM (inactive) | – | > 78.2 µM (inactive) | < 0.01 µM (active) | 53.8 µM (inactive) | 42.4 µM (inactive) | 58.6 µM (inactive) | 60.4 µM (inactive) | 38.8 µM (inactive) | 56.5 µM (inactive) | –
8 | C[C@@]1(c2ccccc2)O[C@@H]2C[C@H]3[C@@H]4CCC5=CC(=O)C=C[C@]5(C)[C@@]4(F)[C@@H](O)C[C@]3(C)[C@]2(C(=O)CO)O1 [AMCINAFIDE] | 20.1 µM (inactive) | 19.3 µM (inactive) | 18 µM (inactive) | 15 µM (inactive) | 16.4 µM (inactive) | 15.6 µM (inactive) | 16.7 µM (inactive) | 14.6 µM (inactive) | 15.6 µM (inactive) | 11.1 µM (inactive) | 19.5 µM (inactive) | 20.1 µM (inactive) | 15 µM (inactive) | 12.4 µM (inactive) | 17.5 µM (inactive) | 16 µM (inactive) | 23.3 µM (inactive) | –
